Experimental data taken from paper PMC4592835 (Bioorganic & medicinal chemistry letters, 2015).

Experiments:
caspase-3/7 = assay: Enzymatic activity of caspases-3/7 in treated MDA-MB-231 cells; assay type: cell-based, human; settings: MDA-MB-231 cells treated at 10 μM
[1] = test system: human metastatic breast cancer line, MDA-MB-231; settings: different experimental conditions; cited from earlier work

Compound	potency relative to monomer M11 in caspase-3/7 activation (caspase-3/7)	in vivo activity profile compared with M11, in words [1]
CN[C@@H](C)C(=O)N[C@@H](CSCc1ccc(-c2ccc(CSC[C@H](NC(=O)[C@H](C)NC)C(=O)N3CCC[C@H]3C(=O)NC(c3ccccc3)c3ccccc3)cc2)cc1)C(=O)N1CCC[C@H]1C(=O)NC(c1ccccc1)c1ccccc1 [Compound D13]	~ 2.5 ×	
CN[C@@H](C)C(=O)N[C@H]1CCCC[C@H]2CC[C@@H](C(=O)N[C@@H](c3ccccc3)c3cn(CCCCc4ccc(CCCCn5cc([C@@H](NC(=O)[C@@H]6CC[C@@H]7CCCC[C@H](NC(=O)[C@H](C)NC)C(=O)N76)c6ccccc6)nn5)cc4)nn3)N2C1=O [SM-164]		markedly improved activity profiles
